According to US9737476B2, “Cosmetic use of an albizia julibrissin extract and corresponding topical composition” (Sederma, priority 2011, dated 2017):

Experiments:
soluble bovine elastin = test: Non enzymatic glycation of elastin with fructose (fluorescence); assay type: biochemical
Protocol: Non-enzymatic glycation occurring between a protein and a reducing sugar like fructose or glucose is a spontaneous and slow reaction that can be accelerated by heat. In this test, the protein is soluble bovine elastin and the reducing sugar is fructose. They are incubated with or without test products at 50° C. for 9 days. Final products resulting from glycation may be quantified by fluorescence (λex=360 nm and λem=460 nm).

MMP1 = test: Metalloproteinase in culture media after cigarette smoke extract stress (ELISA); assay type: cell-based, human; details: Trolox 500 μM
Protocol: Human dermal fibroblasts are cultured until confluence. Then cells are contacted with or without the test products during 24 hours. Then cells are stressed with an extract of cigarette smoke with or without the test products. After a last incubation with or without the test products, metallo-proteinases MMP1 and MMP2 present in the culture media are measured by ELISA and reduced to the number of cells (evaluated with the Hoescht reagent).

Fibroblasts = test: Accumulation of lipofuscin AGE-pigment (dityrosine marker); assay type: cell-based, human; details: Trolox 500 μM; p < 0.01
Excerpt: Principle and protocol: MGO is indirectly involved in the production of another group of toxins called lipofuscin. This pigment, which is seen on skin sections, is yellow in colour. It is poorly characterised as it is formed from an aggregate of different damaged cell components. Reduced functioning of the proteasome allows it to accumulate. Glycation (and therefore alteration) of the proteasome promotes the accumulation of this toxic pigment.
The same “fatiguing” cell stress as above in point 2a was used, alternating two rest periods (+/− of Albizia Julibrissin extract) and 2 periods of stress (+/− the Albizia Julibrissin extract with 500 μM microns of MGO). At the end of the second glycating stress, a dosage of the lipofuscin marker, the dityrosine was performed on the cell and reduced to the number of cells.

[1] = system: human dermal fibroblasts (HDF); test: Measurement of carboxymethyl-lysine (CML) released by fibroblasts after MGO glycating stress (Elisa); assay type: cell-based; details: aminoguanidine 0.03%; p < 0.01
Protocol: For the tests achieved on cell cultures, a hydro-glycolic extract obtained according to Example A) above comprising 2% of albizine was used at 0.006% diluted in aqueous excipients, of the type of cell culture media.
Principle and protocol: CML, a specific type of AGEs, accumulates during time in particular on the dermis proteins synthesized by fibroblasts. In vitro, on fibroblasts in culture, it is possible to accelerate this phenomenon by a glycating stress.
500 μM of methylglyoxal (MGO) were applied to confluent human dermal fibroblasts (HDF) to provoke AGE formation. After this glycating contact at 37° C. during 4 days, the MGO was removed from the cultures by rinsing and the Albizia Julibrissin extract was applied for 5 days. The supernatants were then removed for Elisa measurement of CML released by the fibroblasts. Cells were counted in parallel from the cell layers. Two independent tests were performed.

## Darutoside
Soluble bovine elastin; 15 ppm (combination: 15 ppm Darutoside + 15 ppm extract), elastin + fructose, 50° C., 9 days, control 6096 +/− 438
  Glycation: 5843 +/− 383 UFA

## Cc1c(C)c2c(c(C)c1O)CCC(C)(C(=O)O)O2 (stereo not drawn) [Trolox]
MMP1; control stress 9200 +/− 1590
  MMP1: 3962 +/− 759 ng/10^6 cells
MMP1; p < 0.05
  % change in MMP1 vs. control stress: −57%; p < 0.05
Fibroblasts
  % change in dityrosine, positive MGO control: *AFU: Arbitrary fluorescence unit; positive MGO control: Trolox 500 μM: −61.1% (p < 0.01)

## N=C(N)NN [aminoguanidine]
[1]
  % change in CML, positive control: Positive control aminoguanidine 0.03%; −41% CML; (p < 0.01).
Soluble bovine elastin; aminoguanidine 0.03%, p < 0.01
  % change in glycation vs. control: Aminoguanidine 0.03%: −99%; p < 0.01
